Data: US20240418626A1, “METHOD, DEVICE, AND SYSTEM FOR CELL IDENTIFICATION” (Ruixin (Fuzhou) Technology Co., Ltd., priority 2021, published 2024)

Assays:
Format in all cases: cell-based
A549 cells [1] = test: Cell vitality reflected by cellular traction force in A549 cells treated with 5-FU; conditions: for time of significant decrease in cellular traction force: FIG. 11C
Protocol: (§1) Specifically, in the present embodiment, non-small cell lung cancer A549 cells are cultured on multiple cellular traction force detection devices, and then are treated with various doses of cell proliferation inhibitor 5-fluorouracil (5-FU). Subsequently, the cellular traction forces at different time are monitored by using the cellular identification system described in the twentieth embodiment. Cell proliferation and cytotoxicity are monitored using the CCK-8 kit, with cell vitality measured by the MTT assay serving as a control group, yielding the data for FIGS. 11B and 11C.

A549 cells [2] = test: Cell vitality by MTT assay in A549 cells treated with 5-FU
Protocol: as §1

[3] = tested on: Breast cancer cells MCF-7 tumor cell aggregates; test: 5-Fu drug sensitivity of tumor cell aggregates on the cellular traction force detection device; conditions: MCF-7 aggregates, 200 μM, cultured for one day, FIGS. 13A and 13B
Protocol: S1, Generation of tumor cell aggregates: FN 50 μg/mL is coated on the top of the micro-/nano-pillars of the cellular traction force detection device and sterilized with UV light for 30 minutes. Breast cancer cells MCF-7 (approximately 1×10^5 to 9×10^5 cells) are seeded on the surface of the micro-/nano-pillars of the cellular traction force detection device (number of micro-/nano-pillars not limited) and then cultured in 3dGRO™ Spheroid Medium (S3077) for more than three days to guide the formation of tumor cell aggregates.
S2, Applying the generated tumor cell aggregates to 5-Fu drug sensitivity experiments: 200 μM of 5-Fu is added to the tumor cell aggregates and cultured for one day. In the experiment, cellular traction force detection devices with tumor cell aggregates (along with the culture medium) before and after the addition of 5-Fu are monitored using the information acquisition unit (CCD sensor) within the cellular identification device to capture light reflection signals.

[4] = various doses of 5-FU, FIGS. 11B and 11C

Q: Which results are given for O=c1[nH]cc(F)c(=O)[nH]1 [5-FU, 5-fluorouracil]?
A: time of significant decrease in cellular traction force (A549 cells [1]; 0.5 μM treatment dose): 6 h; time of significant decrease in cellular traction force (A549 cells [1]; 1 μM treatment dose): 3 h; cellular vitality as reflected by traction forces compared to control group DMSO (A549 cells [1]; different doses, treatment for 24 hours, FIG. 11B): decreases more significantly; cell vitality reflected by cellular traction forces (A549 cells [1]; [4]): dose-dependent decrease; changes in cell vitality measured by the MTT assay (A549 cells [2]; after 12 hours of treatment, FIG. 11C): not noticeable; cell vitality measured by the traditional MTT assay (A549 cells [2]; [4]): dose-dependent decrease; reflection signals of tumor cell aggregates after treatment [3]: significantly weaken
